Source: patent publication US20230081426A1, “COMPOUNDS AND METHODS FOR KRAS MODULATION AND INDICATIONS THEREFOR” (Plexxikon Inc., priority 2020, published 2023)

Assays:
[1] = molecular target: T1, G12C-mutant human KRAS (amino acid residues 1-188) (Homo sapiens, UniProt P01116, G12C); test: KRAS Binding Disruption Assay (AlphaScreen; biotinylated KRpep-2d analogue or RAF1-RBD), G12C; conditions: geometric mean, read-out: KRAS GMean IC50 (uM) MUTATION: G12C
T1 construct: G12D or G12C-mutant human KRAS (amino acid residues 1-188) with FLAG tag; made in house; host or cells: E. coli
T1 sequence (P01116 1-188 isoform P01116-2 G12C): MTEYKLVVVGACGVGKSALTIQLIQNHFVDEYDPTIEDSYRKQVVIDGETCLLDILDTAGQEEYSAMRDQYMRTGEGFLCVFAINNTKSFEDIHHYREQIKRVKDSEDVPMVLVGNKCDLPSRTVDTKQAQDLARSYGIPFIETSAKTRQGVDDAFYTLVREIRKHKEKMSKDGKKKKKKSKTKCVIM
Summary of the method: (§1)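 Compounds are titrated against 5-20 nM mutant KRAS and 5-20 nM of either a biotinylated KRpep-2d analogue or RAF1-RBD, incubated 1 h at 25° C. Disruption is detected as reduced Alpha signal after 1 h with donor and acceptor beads at 10 μg/mL.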

[2] = molecular target: T2, G12D-mutant human KRAS (amino acid residues 1-188) (Homo sapiens, UniProt P01116, G12D); test: KRAS Binding Disruption Assay (AlphaScreen; biotinylated KRpep-2d analogue or RAF1-RBD), G12D; conditions: KRAS G12D; geometric mean; read-out: KRAS GMean IC50 (uM) MUTATION: G12D
T2 construct: G12D or G12C-mutant human KRAS (amino acid residues 1-188) with FLAG tag; made in house; host or cells: E. coli
T2 sequence (P01116 1-188 isoform P01116-2 G12D): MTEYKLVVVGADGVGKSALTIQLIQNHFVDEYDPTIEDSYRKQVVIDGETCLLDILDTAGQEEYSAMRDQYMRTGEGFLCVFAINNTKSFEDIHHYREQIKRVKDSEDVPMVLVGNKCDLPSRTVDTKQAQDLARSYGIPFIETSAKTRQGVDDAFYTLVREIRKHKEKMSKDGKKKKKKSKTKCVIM
Summary of the method: as §1

Row | IC50 [1] | IC50 [2] | SMILES
1 | 10 to 100 µM | 0.0001 to 10 µM | Fc1cc2c(N3C[C@H]4CC[C@@H](C3)N4)nc(OCC34CCCN3CCC4)nc2c(F)c1-c1c(Cl)cnc2[nH]ccc12 [P-0645, 4-((1R,5S)-3,8-diazabicyclo[3.2.1]octan-3-yl)-7-(5-chloro-1H-pyrrolo[2,3-b]pyridin-4-yl)-6,8-difluoro-2-((tetrahydro-1H-pyrrolizin-7a(5H)-yl)methoxy)quinazoline]
2 | 0.0001 to 10 µM | 0.0001 to 10 µM | Oc1cc(-c2ccc3c(N4C[C@H]5CC[C@@H](C4)N5)nc(OCCN4CCC(F)(F)C4)nc3c2F)c2ccccc2c1 [P-0649, 4-(4-((1R,5S)-3,8-diazabicyclo[3.2.1]octan-3-yl)-2-(2-(3,3-difluoropyrrolidin-1-yl)ethoxy)-8-fluoroquinazolin-7-yl)naphthalen-2-ol]
3 | 0.0001 to 10 µM | 0.0001 to 10 µM | CN1CCC[C@H]1COc1nc(N2C[C@H]3CC[C@@H](C2)N3S(N)(=O)=O)c2ccc(-c3cc(O)cc4ccccc34)c(F)c2n1 [P-0663, (1R,5S)-3-(8-fluoro-7-(3-hydroxynaphthalen-1-yl)-2-(((S)-1-methylpyrrolidin-2-yl)methoxy)quinazolin-4-yl)-3,8-diazabicyclo[3.2.1]octane-8-sulfonamide]
4 | 10 to 100 µM | 0.0001 to 10 µM | CN(C)C1(C(N)=O)CN(c2nc(N3C[C@H]4CC[C@@H](C3)N4)c3ccc(-c4cc(O)cc5ccccc45)c(F)c3n2)C1 [P-0640, 1-(4-((1R,5S)-3,8-diazabicyclo[3.2.1]octan-3-yl)-8-fluoro-7-(3-hydroxynaphthalen-1-yl)quinazolin-2-yl)-3-(dimethylamino)azetidine-3-carboxamide]
5 | 10 to 100 µM | 0.0001 to 10 µM | O=C1CCCN1CCOc1nc(N2C[C@H]3CC[C@@H](C2)N3)c2ccc(-c3cc(O)cc4ccccc34)c(F)c2n1 [P-0693, 1-(2-((4-((1R,5S)-3,8-diazabicyclo[3.2.1]octan-3-yl)-8-fluoro-7-(3-hydroxynaphthalen-1-yl)quinazolin-2-yl)oxy)ethyl)pyrrolidin-2-one]
6 | 10 to 100 µM | 0.0001 to 10 µM | Fc1c(-c2c[nH]c3cccc(F)c23)c(Cl)cc2c(N3C[C@H]4CC[C@@H](C3)N4)nc(OCC34CCCN3CCC4)nc12 [P-0809, 4-((1R,5S)-3,8-diazabicyclo[3.2.1]octan-3-yl)-6-chloro-8-fluoro-7-(4-fluoro-1H-indol-3-yl)-2-((tetrahydro-1H-pyrrolizin-7a(5H)-yl)methoxy)quinazoline]
7 | 10 to 100 µM | 0.0001 to 10 µM | Oc1cc(-c2ccc3c(N4CC5CCC(C4)N5)nc(CN[C@@H]4CCC[C@H]4O)nc3c2)c2ccccc2c1 [P-0672, 4-(4-((1R,5S)-3,8-diazabicyclo[3.2.1]octan-3-yl)-2-((((1R,2R)-2-hydroxycyclopentyl)amino)methyl)quin-azolin-7-yl)naphthalen-2-ol]
8 | 0.0001 to 10 µM | 0.0001 to 10 µM | C=Cc1cc2c(N3C[C@H]4CC[C@@H](C3)N4)nc(OC[C@@H]3CCCN3C)nc2c(F)c1-c1cc(O)cc2ccccc12 [P-0036, 4-[4-(3,8-Diazabicyclo[3.2.1]octan-3-yl)-8-fluoro-2-[[(2S)-1-methylpyrrolidin-2-yl]methoxy]-6-vinyl-quinazolin-7-yl]naphthalen-2-ol]
9 | 0.0001 to 10 µM | 0.0001 to 10 µM | Cc1ccc2[nH]cc(-c3ccc4c(N5C[C@H]6CC[C@@H](C5)N6)nc(OCC56CCCN5CCC6)nc4c3F)c2c1F [P-0646, 4-((1R,5S)-3,8-diazabicyclo[3.2.1]octan-3-yl)-8-fluoro-7-(4-fluoro-5-methyl-1H-indol-3-yl)-2-((tetrahydro-1H-pyrrolizin-7a(5H)-yl)methoxy)quinazoline]
10 | 100 to 1000 µM | 0.0001 to 10 µM | Oc1cc(-c2ccc3c(N4C[C@H]5CC[C@@H](C4)N5)nc(CNC4CC(O)C4)nc3c2)c2ccccc2c1 (stereo partly drawn) [P-0670, 4-(4-((1R,5S)-3,8-diazabicyclo[3.2.1]octan-3-yl)-2-(((3-hydroxycyclobutyl)amino)methyl)quin-azolin-7-yl)naphthalen-2-ol]
11 | 10 to 100 µM | 0.0001 to 10 µM | Oc1cc(-c2ccc3c(N4C[C@H]5CC[C@@H](C4)N5)nc(OCC4(O)CCC4)nc3c2F)c2ccccc2c1 [P-0722, 4-(4-((1R,5S)-3,8-diazabicyclo[3.2.1]octan-3-yl)-8-fluoro-2-((1-hydroxycyclobutyl)methoxy)quinazolin-7-yl)naphthalen-2-ol]
12 | 0.0001 to 10 µM | 0.0001 to 10 µM | CP(C)(=O)CC(=O)N1[C@@H]2CC[C@H]1CN(c1nc(OCC34CCCN3CCC4)nc3c(F)c(-c4cc(O)cc5ccccc45)ccc13)C2 [P-0773, 2-(dimethylphosphoryl)-1-((1R,5S)-3-(8-fluoro-7-(3-hydroxynaphthalen-1-yl)-2-((tetrahydro-1H-pyrrolizin-7a(5H)-yl)methoxy)quinazolin-4-yl)-3,8-diazabicyclo[3.2.1]octan-8-yl)ethan-1-one]
13 | 0.0001 to 10 µM | 0.0001 to 10 µM | CCc1cccc2[nH]cc(-c3ncc4c(N5C[C@H]6CC[C@@H](C5)N6)nc(OC[C@@]56CCCN5C[C@H](F)C6)nc4c3F)c12 [P-0505, 4-((1R,5S)-3,8-diazabicyclo[3.2.1]octan-3-yl)-7-(4-ethyl-1H-indol-3-yl)-8-fluoro-2-(((2R,7aS)-2-fluorotetrahydro-1H-pyrrolizin-7a(5H)-yl)methoxy)pyrido[4,3-d]pyrimidine]

Further lines, the compound ahead of its results:

Row | SMILES | IC50 [1] | IC50 [2]
14 | CC(=O)NC(C)(C)COc1nc(N2C[C@H]3CC[C@@H](C2)N3)c2ccc(-c3cc(O)cc4ccccc34)c(F)c2n1 [P-0717, N-(1-((4-((1R,5S)-3,8-diazabicyclo[3.2.1]octan-3-yl)-8-fluoro-7-(3-hydroxynaphthalen-1-yl)quinazolin-2-yl)oxy)-2-methylpropan-2-yl)acetamide] | 10 to 100 µM | 0.0001 to 10 µM
15 | CN(C)C(=O)CNc1nc(N2C[C@H]3CC[C@@H](C2)N3)c2ccc(-c3cc(O)cc4ccccc34)cc2n1 [P-0059, 2-((4-((1R,5S)-3,8-diazabicyclo[3.2.1]octan-3-yl)-7-(3-hydroxynaphthalen-1-yl)quinazolin-2-yl)amino)-N,N-dimethylacetamide] | 10 to 100 µM | 10 to 100 µM
16 | CN1CCC[C@H]1COc1nc(N2C[C@H]3CC[C@@H](C2)N3)c2cc(F)c(-c3n[nH]c4ccccc34)c(F)c2n1 [P-0725, 4-((1R,5S)-3,8-diazabicyclo[3.2.1]octan-3-yl)-6,8-difluoro-7-(1H-indazol-3-yl)-2-(((S)-1-methylpyrrolidin-2-yl)methoxy)quinazoline] | 100 to 1000 µM | 10 to 100 µM
17 | Fc1c(-c2c[nH]c3cccc(C4CC4)c23)ccc2c(N3C[C@H]4CC[C@@H](C3)N4)nc(OCC34CCCN3CCC4)nc12 [P-0697, 4-((1R,5S)-3,8-diazabicyclo[3.2.1]octan-3-yl)-7-(4-cyclopropyl-1H-indol-3-yl)-8-fluoro-2-((tetrahydro-1H-pyrrolizin-7a(5H)-yl)methoxy)quinazoline] | 0.0001 to 10 µM | 0.0001 to 10 µM
18 | OCCCOc1nc(N2C[C@H]3CC[C@@H](C2)N3)c2ccc(-c3cc(O)cc4ccccc34)c(F)c2n1 [P-0652, 4-(4-((1R,5S)-3,8-diazabicyclo[3.2.1]octan-3-yl)-8-fluoro-2-(3-hydroxypropoxy)quinazolin-7-yl)naphthalen-2-ol] | 10 to 100 µM | 0.0001 to 10 µM
19 | Fc1cc2c(N3C[C@H]4CC[C@@H](C3)N4)nc(OCC34CCCN3CCC4)nc2c(F)c1-c1c[nH]c2c(F)ccc(F)c12 [P-0746, 4-((1R,5S)-3,8-diazabicyclo[3.2.1]octan-3-yl)-7-(4,7-difluoro-1H-indol-3-yl)-6,8-difluoro-2-((tetrahydro-1H-pyrrolizin-7a(5H)-yl)methoxy)quinazoline] | 10 to 100 µM | 0.0001 to 10 µM
20 | CN1C(=O)CCC1COc1nc(N2C[C@H]3CC[C@@H](C2)N3)c2ccc(-c3cc(O)cc4ccccc34)c(F)c2n1 (stereo partly drawn) [P-0742, 5-(((4-((1R,5S)-3,8-diazabicyclo[3.2.1]octan-3-yl)-8-fluoro-7-(3-hydroxynaphthalen-1-yl)quinazolin-2-yl)oxy)methyl)-1-methylpyrrolidin-2-one] | 10 to 100 µM | 0.0001 to 10 µM
21 | Cc1cc(CN2[C@@H]3CC[C@H]2CN(c2nc(OCC45CCCN4CCC5)nc4cc(-c5cc(O)cc6ccccc56)ccc24)C3)no1 [P-0006, 4-(4-((1R,5S)-8-((5-methylisoxazol-3-yl)methyl)-3,8-diazabicyclo[3.2.1]octan-3-yl)-2-((tetrahydro-1H-pyrrolizin-7a(5H)-yl)methoxy)quinazolin-7-yl)naphthalen-2-ol] | 10 to 100 µM | 0.0001 to 10 µM
22 | Oc1cc(-c2ccc3c(N4C[C@H]5CC[C@@H](C4)N5)nc(OCC4CCCC4)nc3c2F)c2ccccc2c1 [P-0810, 4-(4-((1R,5S)-3,8-diazabicyclo[3.2.1]octan-3-yl)-2-(cyclopentylmethoxy)-8-fluoroquinazolin-7-yl)naphthalen-2-ol] | 10 to 100 µM | 0.0001 to 10 µM
23 | CN1CCC2CN(c3nc(N4C[C@H]5CC[C@@H](C4)N5)c4ccc(-c5cc(O)cc6ccccc56)c(F)c4n3)CC21 (stereo partly drawn) [P-0705, 4-(4-((1R,5S)-3,8-diazabicyclo[3.2.1]octan-3-yl)-8-fluoro-2-(1-methylhexahydropyrrolo[3,4-b]pyrrol-5(1H)-yl)quinazolin-7-yl)naphthalen-2-ol] | 10 to 100 µM | 0.0001 to 10 µM
24 | CS(=O)(=O)NC1CN(c2nc(N3C[C@H]4CC[C@@H](C3)N4)c3ccc(-c4cc(O)cc5ccccc45)c(F)c3n2)C1 [P-0702, N-(1-(4-((1R,5S)-3,8-diazabicyclo[3.2.1]octan-3-yl)-8-fluoro-7-(3-hydroxynaphthalen-1-yl)quinazolin-2-yl)azetidin-3-yl)methanesulfonamide] | 10 to 100 µM | 0.0001 to 10 µM
